The subject of assay [1] is Bacillus amyloliquefaciens. Nature of the assay: Antibacterial activity against Bacillus amyloliquefaciens at 25 ug/ml after 24 hrs by plate colony counting method relative to control. It is filed as functional.
The subject of assay [2] is Staphylococcus aureus. Nature of the assay: Antibacterial activity against Staphylococcus aureus at 25 ug/ml after 24 hrs by plate colony counting method relative to control. It is filed as functional.
For assay [3], the system named is Bacillus subtilis. Kind of assay: Antibacterial activity against Bacillus subtilis at 25 ug/ml after 24 hrs by plate colony counting method relative to control. It is filed as functional.
Assay [4] has as its system Bacillus amyloliquefaciens. Nature of the assay: Antibacterial activity against Bacillus amyloliquefaciens after 24 hrs by plate colony counting method. It is filed as functional.
Assay [5] relates to Staphylococcus aureus. Kind of assay: Antibacterial activity against Staphylococcus aureus after 24 hrs by plate colony counting method. It is filed as functional.
Assay [6] deals with Bacillus subtilis. Nature of the assay: Antibacterial activity against Bacillus subtilis after 24 hrs by plate colony counting method. It is filed as functional.
For assay [7], the system named is Escherichia coli. Kind of assay: Inhibition of Escherichia coli BL21.19 SecA at 20 ug/ml after 30 mins by malachite green dye-based assay relative to control.
Assay [8] in a line: Inhibition of Escherichia coli BL21.19 SecA after 30 mins by malachite green dye-based assay.
The subject of assay [9] is Escherichia coli. Nature of the assay: Inhibition of Escherichia coli BL21.19 SecA at 40 ug/ml after 30 mins by malachite green dye-based assay relative to control.

Structures are written as SMILES. ≈ marks a conversion by molar mass, not a printed value.

As to `N#Cc1c(-c2ccccc2)nc(SCc2ccc(C(=O)NC(=S)Nc3ccccc3)cc2)[nH]c1=O`, the values for the inhibition at 25 µg/mL (in assay [1]; in the assay on Staphylococcus aureus [2]; with Bacillus subtilis [3]) were 70%, 67% and 63%, respectively.

`N#Cc1c(-c2ccccc2Cl)nc(SCc2ccc(C(=O)NC(=S)Nc3ccccc3)cc2)[nH]c1=O`: the figures for the inhibition at 25 µg/mL (in [1]; with Staphylococcus aureus [2]; in the assay on Bacillus subtilis [3]) were 67%, 80% and 87%, respectively. The MIC (commonly the lowest concentration that inhibits growth of the organism) in assay [4] was 25 µg/mL (≈ 47 µM); against Staphylococcus aureus [5], 50 µg/mL (≈ 94 µM); in the assay on Bacillus subtilis [6], 25 µg/mL (≈ 47 µM). Moreover, the inhibition (as a rule, how much of the control response was suppressed) in the assay with Escherichia coli [7] came out at 50%. Besides, the IC50 – broadly, the point on the concentration scale where inhibition reaches its midpoint – in [8] was determined as 17.9 µg/mL (≈ 33.6 µM).

`N#Cc1c(-c2ccccc2Cl)nc(SCc2ccc(C(=O)NC(=S)Nc3ccc(Cl)cc3)cc2)[nH]c1=O`: the inhibition at 25 µg/mL in assay [1] amounted to 63%; with Staphylococcus aureus [2], 68%; in the assay with Bacillus subtilis [3], 68%.

Take `Cc1ccccc1NC(=S)NC(=O)c1ccc(CSc2nc(-c3ccccc3Cl)c(C#N)c(=O)[nH]2)cc1`: the inhibition at 25 µg/mL was 78% in assay [1], 71% with Staphylococcus aureus [2] and 82% with Bacillus subtilis [3].

With `N#Cc1c(-c2c(Cl)cccc2Cl)nc(SCc2ccc(C(=O)NC(=S)Nc3c(Cl)cccc3Cl)cc2)[nH]c1=O`, the inhibition at 25 µg/mL amounted to 53% in assay [1], 79% in the assay with Staphylococcus aureus [2] and 73% with Bacillus subtilis [3]. Further, the MIC (in assay [4]; against Staphylococcus aureus [5]; with Bacillus subtilis [6]) was 50 µg/mL (≈ 78.7 µM) each time.

`N#Cc1c(-c2ccc(-c3ccccc3)cc2)nc(SCc2ccc(C(=O)NC(=S)Nc3ccccc3)cc2)[nH]c1=O`: the results for the inhibition at 25 µg/mL (in assay [1]; with Staphylococcus aureus [2]; in the assay with Bacillus subtilis [3]) were 62%, 83% and 72%, respectively. For the same compound, the minimal inhibitory concentration (MIC) (in assay [4]; against Staphylococcus aureus [5]; with Bacillus subtilis [6]) was 50 µg/mL (≈ 87.2 µM) throughout.

`N#Cc1c(-c2ccc(Cl)cc2Cl)nc(SCc2ccc(C(=O)NC(=S)Nc3c(Cl)cccc3Cl)cc2)[nH]c1=O`: the values for the inhibition at 25 µg/mL (in assay [1]; in the assay with Staphylococcus aureus [2]; in the assay with Bacillus subtilis [3]) were 72%, 68% and 69%, respectively. Further, the minimum inhibitory concentration (MIC) (in [4]; in the assay on Staphylococcus aureus [5]; in the assay on Bacillus subtilis [6]) was 50 µg/mL (≈ 78.7 µM) each time.

Regarding `N#Cc1c(-c2ccc(-c3ccccc3)cc2)nc(SCc2ccc(C(=O)NC(=S)Nc3c(Cl)cccc3Cl)cc2)[nH]c1=O`, the values for the inhibition at 25 µg/mL (in assay [1]; in the assay with Staphylococcus aureus [2]; in the assay on Bacillus subtilis [3]) were 71%, 80% and 69%, respectively. Besides, the minimal inhibitory concentration (MIC) (in assay [4]; against Staphylococcus aureus [5]; against Bacillus subtilis [6]) was 50 µg/mL (≈ 77.8 µM) in each case.

For `Cc1ccccc1NC(=S)NC(=O)c1ccc(CSc2nc(-c3ccccc3)c(C#N)c(=O)[nH]2)cc1`, the inhibition at 25 µg/mL in [1] was determined as 69%; in the assay with Staphylococcus aureus [2], 63%; in the assay on Bacillus subtilis [3], 78%.

For the compound `N#Cc1c(-c2ccccc2)nc(SCc2ccc(C(=O)NC(=S)Nc3ccc(Cl)cc3)cc2)[nH]c1=O`, the inhibition at 25 µg/mL in [1] came to 79%; in the assay with Staphylococcus aureus [2], 64%; with Bacillus subtilis [3], 71%. In the assay on Escherichia coli [9], this compound registered an inhibition of 50%. The compound further showed an IC50 in [8] of 39.4 µg/mL (≈ 74.1 µM).

Consider `N#Cc1c(-c2ccc(Cl)cc2Cl)nc(SCc2ccc(C(=O)NC(=S)Nc3ccccc3)cc2)[nH]c1=O`, for which the inhibition at 25 µg/mL in assay [1] was 56%; with Staphylococcus aureus [2] it was 79%; in the assay on Bacillus subtilis [3] it was 66%.

Turning to `Cc1ccccc1NC(=S)NC(=O)c1ccc(CSc2nc(-c3c(Cl)cccc3Cl)c(C#N)c(=O)[nH]2)cc1`, the inhibition at 25 µg/mL came out at 50% in [1], 64% with Staphylococcus aureus [2] and 62% in the assay with Bacillus subtilis [3].

On to `Cc1ccccc1NC(=S)NC(=O)c1ccc(CSc2nc(-c3ccc(Cl)cc3)c(C#N)c(=O)[nH]2)cc1`, for which the results for the inhibition at 25 µg/mL (in assay [1]; with Staphylococcus aureus [2]; in the assay with Bacillus subtilis [3]) were 61%, 58% and 78%, respectively.

`N#Cc1c(-c2ccccc2)nc(SCc2ccc(C(=O)NC(=S)Nc3c(Cl)cccc3Cl)cc2)[nH]c1=O`: the inhibition at 25 µg/mL in [1] stood at 81%; in the assay on Staphylococcus aureus [2], 70%; in the assay on Bacillus subtilis [3], 84%.

As to `N#Cc1c(-c2ccc(Cl)cc2)nc(SCc2ccc(C(=O)NC(=S)Nc3ccc(Cl)cc3)cc2)[nH]c1=O`, the inhibition at 25 µg/mL in assay [1] turned out to be 61%; in the assay on Staphylococcus aureus [2], 62%; in the assay on Bacillus subtilis [3], 91%.

As for `N#Cc1c(-c2ccc(-c3ccccc3)cc2)nc(SCc2ccc(C(=O)NC(=S)Nc3ccc(Cl)cc3)cc2)[nH]c1=O`, the inhibition at 25 µg/mL in assay [1] came to 75%; in the assay on Staphylococcus aureus [2], 76%; in the assay with Bacillus subtilis [3] it was 56%.

As for `CCn1cc(C(=O)O)c(=O)c2cc(F)c(N3CCNCC3)cc21` [NORFLOXACIN], the inhibition at 25 µg/mL was 84% in assay [1], 78% with Staphylococcus aureus [2] and 89% with Bacillus subtilis [3]. Also, the MIC (in [4]; in the assay with Staphylococcus aureus [5]; with Bacillus subtilis [6]) was 25 µg/mL (≈ 78.3 µM) in each case.

Turning to `Cc1ccccc1NC(=S)NC(=O)c1ccc(CSc2nc(-c3ccc(-c4ccccc4)cc3)c(C#N)c(=O)[nH]2)cc1`, the inhibition at 25 µg/mL in assay [1] was determined as 73%; in the assay on Staphylococcus aureus [2] it was 67%; with Bacillus subtilis [3], 78%.

In the case of `N#Cc1c(-c2ccc(Cl)cc2)nc(SCc2ccc(C(=O)NC(=S)Nc3c(Cl)cccc3Cl)cc2)[nH]c1=O`, the inhibition at 25 µg/mL in assay [1] worked out at 81%; in the assay on Staphylococcus aureus [2] it was 81%; in the assay with Bacillus subtilis [3], 80%. For the same compound, the MIC is 25 µg/mL (≈ 41.6 µM) in [4], 50 µg/mL (≈ 83.2 µM) in the assay with Staphylococcus aureus [5] and 50 µg/mL (≈ 83.2 µM) in the assay with Bacillus subtilis [6]. The same compound returned an inhibition in the assay with Escherichia coli [9] of 50%. In addition, the IC50 in assay [8] came out at 38.8 µg/mL (≈ 64.6 µM).

On to `N#Cc1c(-c2ccccc2Cl)nc(SCc2ccc(C(=O)NC(=S)Nc3c(Cl)cccc3Cl)cc2)[nH]c1=O`, for which the inhibition at 25 µg/mL in assay [1] turned out to be 89%; in the assay with Staphylococcus aureus [2], 79%; in the assay on Bacillus subtilis [3] it was 92%. In addition, the MIC amounted to 25 µg/mL (≈ 41.6 µM) in assay [4], 50 µg/mL (≈ 83.2 µM) with Staphylococcus aureus [5] and 50 µg/mL (≈ 83.2 µM) against Bacillus subtilis [6]. In addition, the inhibition with Escherichia coli [7] is 50%. In assay [8], this compound gave an IC50 of 16 µg/mL (≈ 26.6 µM).

Turning to `N#Cc1c(-c2ccc(Cl)cc2)nc(SCc2ccc(C(=O)NC(=S)Nc3ccccc3)cc2)[nH]c1=O`, the inhibition at 25 µg/mL in assay [1] came to 70%; with Staphylococcus aureus [2], 67%; with Bacillus subtilis [3], 63%.

`Cc1ccccc1NC(=S)NC(=O)c1ccc(CSc2nc(-c3ccc(Cl)cc3Cl)c(C#N)c(=O)[nH]2)cc1`: the values for the inhibition at 25 µg/mL (in assay [1]; with Staphylococcus aureus [2]; in the assay on Bacillus subtilis [3]) were 55%, 66% and 54%, respectively.

Regarding `N#Cc1c(-c2c(Cl)cccc2Cl)nc(SCc2ccc(C(=O)NC(=S)Nc3ccc(Cl)cc3)cc2)[nH]c1=O`, the inhibition at 25 µg/mL stood at 49% in assay [1], 68% in the assay with Staphylococcus aureus [2] and 63% with Bacillus subtilis [3].

Consider `N#Cc1c(-c2ccc(Cl)cc2Cl)nc(SCc2ccc(C(=O)NC(=S)Nc3ccc(Cl)cc3)cc2)[nH]c1=O`, for which the inhibition at 25 µg/mL in [1] stood at 74%; with Staphylococcus aureus [2], 69%; in the assay on Bacillus subtilis [3] it was 74%.

On to `N#Cc1c(-c2ccc(-c3ccccc3)cc2)nc(SCc2ccc(CSc3nc(-c4ccc(-c5ccccc5)cc4)c(C#N)c(=O)[nH]3)cc2)[nH]c1=O`, for which the results for the inhibition at 25 µg/mL (in [1]; with Staphylococcus aureus [2]; with Bacillus subtilis [3]) were 87%, 79% and 44%, respectively. The values for the minimal inhibitory concentration (MIC) (in [4]; in the assay with Staphylococcus aureus [5]; in the assay with Bacillus subtilis [6]) were 12.5 µg/mL (≈ 17.5 µM), 25 µg/mL (≈ 35.1 µM) and 50 µg/mL (≈ 70.1 µM), respectively. Moreover, the IC50 in assay [8] amounted to 20.8 µg/mL (≈ 29.2 µM).

As for `N#Cc1c(-c2c(Cl)cccc2Cl)nc(SCc2ccc(C(=O)NC(=S)Nc3ccccc3)cc2)[nH]c1=O`, the inhibition at 25 µg/mL in assay [1] is 71%; in the assay with Staphylococcus aureus [2] it was 71%; in the assay on Bacillus subtilis [3], 55%.

The values are drawn from ChEMBL document CHEMBL4038262, “Design, synthesis and antibacterial activities of thiouracil derivatives containing acyl thiourea as SecA inhibitors” (Bioorg Med Chem Lett, 2017).
